What all share (assay type): cell-based
Experiment [1] concerns the target T1, human glucose-dependent insulinotropic peptide receptor (GIPR) (Homo sapiens, UniProt P48546).
T1 construct: expressed in transfected cells
T1 sequence (P48546 22-466): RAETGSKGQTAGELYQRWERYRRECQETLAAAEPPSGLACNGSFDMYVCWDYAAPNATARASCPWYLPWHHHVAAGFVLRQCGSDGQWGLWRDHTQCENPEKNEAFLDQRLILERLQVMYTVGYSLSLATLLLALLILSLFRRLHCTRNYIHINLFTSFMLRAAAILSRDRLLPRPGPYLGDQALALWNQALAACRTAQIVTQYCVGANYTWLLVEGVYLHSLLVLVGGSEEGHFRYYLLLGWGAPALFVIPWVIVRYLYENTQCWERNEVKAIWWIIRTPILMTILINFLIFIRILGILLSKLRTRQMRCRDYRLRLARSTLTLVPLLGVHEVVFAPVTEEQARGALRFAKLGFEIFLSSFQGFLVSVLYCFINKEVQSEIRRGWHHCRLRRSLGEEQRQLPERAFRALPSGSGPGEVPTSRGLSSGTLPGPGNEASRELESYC
Briefly: cAMP assay, human GIPR cells. The procedure, abridged: (§1)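 Peptide-stimulated cAMP measured by two-step HTRF after a 30 min room-temperature incubation with receptor-expressing cells (hGLP-1R, hGIPR at 1×10^5 cells/ml; hGCGR at 2×10^5 cells/ml). Duplicate dilutions; EC50 from 4-parameter logistic fit of % Delta F.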
(cAMP levels reflect the balance of adenylyl cyclase and phosphodiesterase activity.)

Experiment [2] has as its target T2, human GLP-1 receptor (GLP-1R) (Homo sapiens, UniProt P43220).
T2 construct: expressed in transfected cells
Briefly: cAMP assay, human GLP-1R cells. An outline of the steps:
as §1

The target of experiment [3] is T3, human glucagon receptor (GCGR) (Homo sapiens, UniProt P47871).
T3 construct: expressed in transfected cells
The experiment can be described thus: cAMP assay, human GCGR cells. An outline of the steps:
as §1

Another experiment addresses T4, GLP-1R (INS1e assay) (Rattus norvegicus, UniProt P32301).
T4 construct: endogenous in cells; host or cells: INS-1E cells
T4 sequence (P32301 22-463): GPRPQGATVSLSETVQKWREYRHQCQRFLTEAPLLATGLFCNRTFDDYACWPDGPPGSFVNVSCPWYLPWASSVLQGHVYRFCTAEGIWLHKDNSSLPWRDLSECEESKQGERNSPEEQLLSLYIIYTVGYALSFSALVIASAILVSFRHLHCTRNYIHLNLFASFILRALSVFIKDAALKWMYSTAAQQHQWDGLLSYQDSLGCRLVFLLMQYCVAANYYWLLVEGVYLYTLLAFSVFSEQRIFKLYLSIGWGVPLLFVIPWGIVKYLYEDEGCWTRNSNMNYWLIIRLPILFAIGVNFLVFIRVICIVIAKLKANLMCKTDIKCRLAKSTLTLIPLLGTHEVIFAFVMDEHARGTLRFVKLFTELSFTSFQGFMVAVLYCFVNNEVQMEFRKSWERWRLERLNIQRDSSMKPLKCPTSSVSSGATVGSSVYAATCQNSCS
The experiment can be described thus: INS1e assay, cAMP activity at GLP-1R. The procedure, abridged: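 cAMP was quantified by two-step HTRF, using anti-cAMP cryptate donor and cAMP-d2 acceptor, each diluted 1/20 in conjugate and lysis buffer. EC50 values of the synthetic peptides were derived from the cAMP readout.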

Where [4] appears, read: cAMP assay, first determination (n1), read-out: Primary assay EC50 GLP-1R n1.
The mark [5] stands for this setting: cAMP assay, second determination (n2), read-out: Primary assay EC50 GLP-1R n2.
Where [6] appears, read: mean of n1 and n2, read-out: Mean pM GLP-1R.
[7] abbreviates: mono-lipidated peptides, mean of n1 and n2, read-out: INS1e assay EC50 Mean pM GLP-1R.
Where [8] appears, read: mono-lipidated peptides, replicate n1, read-out: INS1e assay EC50 GLP-1R n1.
The mark [9] stands for this setting: mono-lipidated peptides, replicate n2, read-out: INS1e assay EC50 GLP-1R n2.
Setting [10] is: cAMP assay, first determination (n1), read-out: Primary assay EC50 GIP-R (n1).
Setting [11] is: cAMP assay, second determination (n2), read-out: Primary assay EC50 GIP-R (n2).
Where [12] appears, read: cAMP assay, first determination (n1), read-out: Primary assay EC50 Gluc-R (n1).
[13] abbreviates: cAMP assay, second determination (n2), read-out: Primary assay EC50 Gluc-R (n2).

Each structure is given as a SMILES string. Read-outs that look alike come from different tables or passages of the source. Numbered stars: 1 amine (or outer) side, 2 acyl side, 3 side chain; on linkers, the order of the positions; unused ones are H or OH. Square brackets hold non-standard residues; d marks the D form. Side chains are listed from the residue outwards. Peptide text beside a SMILES is read from it. * marks the point of attachment. γGlu = O=C(O)[C@H](CCC(=O)[*:2])N[*:1]; αMeF = C[C@](N)(Cc1ccccc1)C(=O)O; αMeK = C[C@](N)(CCCCN)C(=O)O; Lauroyl = CCCCCCCCCCCC(=O)*; αMeS = C[C@](N)(CO)C(=O)O; AEEA = NCCOCCOCC(=O)O; Aib = CC(C)(N)C(=O)O

T2 sequence (P43220 24-463): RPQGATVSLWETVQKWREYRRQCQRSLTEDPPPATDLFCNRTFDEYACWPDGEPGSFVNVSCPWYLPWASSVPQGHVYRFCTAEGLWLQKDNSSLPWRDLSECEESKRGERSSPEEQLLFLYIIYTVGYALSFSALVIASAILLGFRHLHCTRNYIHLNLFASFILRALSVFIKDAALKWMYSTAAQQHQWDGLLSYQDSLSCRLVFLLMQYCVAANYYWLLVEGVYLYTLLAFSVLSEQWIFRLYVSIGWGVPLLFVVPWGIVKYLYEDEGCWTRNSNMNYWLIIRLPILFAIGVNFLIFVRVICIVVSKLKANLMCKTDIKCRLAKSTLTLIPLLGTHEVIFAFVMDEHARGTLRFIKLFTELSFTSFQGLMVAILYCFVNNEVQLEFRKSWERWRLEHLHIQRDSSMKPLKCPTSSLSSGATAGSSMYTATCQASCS
T3 sequence (P47871 26-477): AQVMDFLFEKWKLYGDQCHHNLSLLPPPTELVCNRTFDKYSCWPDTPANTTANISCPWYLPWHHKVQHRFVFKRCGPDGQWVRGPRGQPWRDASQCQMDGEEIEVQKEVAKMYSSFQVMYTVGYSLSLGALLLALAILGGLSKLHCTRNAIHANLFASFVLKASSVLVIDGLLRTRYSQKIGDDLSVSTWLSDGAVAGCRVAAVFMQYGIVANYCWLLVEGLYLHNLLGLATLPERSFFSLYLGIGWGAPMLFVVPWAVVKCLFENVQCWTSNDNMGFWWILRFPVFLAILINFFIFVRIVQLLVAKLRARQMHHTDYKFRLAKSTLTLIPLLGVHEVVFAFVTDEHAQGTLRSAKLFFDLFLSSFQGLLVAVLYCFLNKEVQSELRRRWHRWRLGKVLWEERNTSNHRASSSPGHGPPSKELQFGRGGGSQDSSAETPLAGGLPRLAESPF

For `CC[C@H](C)[C@H](NC(=O)[C@](C)(Cc1ccccc1)NC(=O)[C@H](CCC(=O)O)NC(=O)[C@H](CCCCNC(=O)COCCOCCNC(=O)CCCCCCCCCCCOc1ccc(C(=O)O)cc1)NC(=O)[C@H](C)NC(=O)[C@H](C)NC(=O)[C@H](CCC(=O)O)NC(=O)CNC(=O)[C@H](CCC(=O)O)NC(=O)[C@H](CC(C)C)NC(=O)[C@](C)(Cc1ccccc1)NC(=O)[C@H](CO)NC(=O)[C@](C)(CO)NC(=O)[C@@H](NC(=O)[C@H](CC(=O)O)NC(=O)[C@H](CO)NC(=O)[C@@H](NC(=O)[C@](C)(Cc1ccccc1)NC(=O)[C@H](CO)NC(=O)CNC(=O)[C@H](CCC(=O)O)NC(=O)C(C)(C)NC(=O)[C@@H](N)Cc1c[nH]cn1)[C@@H](C)O)C(C)C)C(=O)N[C@@H](C)C(=O)N[C@@](C)(Cc1ccccc1)C(=O)N[C@H](C(=O)N[C@H](C(=O)N[C@@](C)(CCCCN)C(=O)NCC(=O)NCC(N)=O)C(C)C)C(C)C` [compound 143], the EC50 in experiment [1] (Primary assay EC50 GIP-R (n1), cAMP assay, first determination (n1)) was at least 27 nM; in experiment [1] (read-out: Primary assay EC50 GIP-R (n2), cAMP assay, second determination (n2)), at least 27 nM; in experiment [2] (setting [4]), 12 pM; in experiment [2] (setting [5]), 5.2 pM; in experiment [2] (setting [6]), 8.6 pM; in experiment [3] (Primary assay EC50 Gluc-R (n1), cAMP assay, first determination (n1)) it was at least 27 nM. The EC50 is at least 27 nM in experiment [3] (read-out: Primary assay EC50 Gluc-R (n2), cAMP assay, second determination (n2)); 34 pM on GLP-1R (INS1e assay) (setting [7]); 45.1 pM at GLP-1R (INS1e assay) (setting [8]); 22.7 pM on GLP-1R (INS1e assay) (setting [9]).

For the compound `CCCCCCCCCCCCCCCCCC(=O)NCCOCCOCC(=O)NCCOCCOCC(=O)NCCCC[C@H](NC(=O)[C@H](C)NC(=O)[C@H](C)NC(=O)[C@H](CCC(=O)O)NC(=O)CNC(=O)[C@H](CCC(=O)O)NC(=O)[C@H](CC(C)C)NC(=O)[C@](C)(Cc1ccccc1)NC(=O)[C@H](CO)NC(=O)[C@](C)(CO)NC(=O)[C@@H](NC(=O)[C@H](CC(=O)O)NC(=O)[C@H](CO)NC(=O)[C@@H](NC(=O)[C@](C)(Cc1ccccc1)NC(=O)[C@H](CO)NC(=O)CNC(=O)[C@H](CCC(=O)O)NC(=O)C(C)(C)NC(=O)[C@@H](N)Cc1c[nH]cn1)[C@@H](C)O)C(C)C)C(=O)N[C@@H](CCC(=O)O)C(=O)N[C@@](C)(Cc1ccccc1)C(=O)N[C@H](C(=O)N[C@@H](C)C(=O)N[C@@](C)(Cc1ccccc1)C(=O)N[C@H](C(=O)N[C@H](C(=O)N[C@@](C)(CCCCN)C(=O)NCC(=O)NCC(N)=O)C(C)C)C(C)C)[C@@H](C)CC` [compound 153], the EC50 was at least 27 nM in experiment [1] (setting [10]); at least 27 nM in experiment [1] (setting [11]); 7.9 pM in experiment [2] (setting [4]); 5 pM in experiment [2] (setting [5]); 6.4 pM in experiment [2] (setting [6]); at least 27 nM in experiment [3] (setting [12]). For the same compound, the EC50 is at least 27 nM in experiment [3] (setting [13]), 58 pM on GLP-1R (INS1e assay) (setting [7]), 55 pM on GLP-1R (INS1e assay) (setting [8]) and 61.2 pM on GLP-1R (INS1e assay) (setting [9]).

Turning to `CCCCCCCCCCCC(=O)N[C@@H](CCC(=O)NCCOCCOCC(=O)NCCOCCOCC(=O)NCCCC[C@H](NC(=O)[C@H](C)NC(=O)[C@@H](NC(=O)[C@H](Cc1ccc(OC)cc1)NC(=O)[C@H](CCC(=O)O)NC(=O)[C@](C)(CCCCN)NC(=O)[C@H](C)NC(=O)[C@H](C)NC(=O)[C@H](CCC(=O)O)NC(=O)CNC(=O)[C@H](CCC(=O)O)NC(=O)[C@H](CC(C)C)NC(=O)[C@H](CCCCNC(=O)COCCOCCNC(=O)COCCOCCNC(=O)CC[C@H](NC(=O)CCCCCCCCCCC)C(=O)O)NC(=O)[C@H](CO)NC(=O)[C@](C)(CO)NC(=O)[C@@H](NC(=O)[C@H](CC(=O)O)NC(=O)[C@H](CO)NC(=O)[C@@H](NC(=O)[C@](C)(Cc1ccccc1)NC(=O)[C@H](CO)NC(=O)CNC(=O)[C@H](CCC(=O)O)NC(=O)C(C)(C)NC(=O)[C@@H](N)Cc1c[nH]cn1)[C@@H](C)O)C(C)C)[C@@H](C)CC)C(=O)N[C@H](C(=O)N[C@H](C(=O)N[C@@H](CCC(=O)O)C(=O)NCC(=O)NCC(N)=O)C(C)C)C(C)C)C(=O)O` [compound 406] (H-H[Aib]EGS[αMeF]TSDV[αMeS]SK([AEEA-AEEA-γGlu-Lauroyl])LEGEAA[αMeK]EY(Me)IAK([AEEA-AEEA-γGlu-Lauroyl])VVEGG-NH2; N-terminus assumed), the EC50 in experiment [1] (bis-lipidated peptides, first replicate, read-out: Primary assay EC50 GIP-R (n1)) is at least 21.5 nM; in experiment [2] (bis-lipidated peptides, replicate n1, read-out: Primary assay EC50 GLP-1R n1), 2.19 pM; in experiment [2] (bis-lipidated peptides, replicate n2, read-out: Primary assay EC50 GLP-1R n2), 2.31 pM; in experiment [3] (bis-lipidated peptides, first replicate, read-out: Primary assay EC50 Gluc-R (n1)) it was at least 21.5 nM; at GLP-1R (INS1e assay) (bis-lipidated peptides, mean of n1 and n2, read-out: INS1e assay EC50 Mean pM GLP-1R), 94 pM; on GLP-1R (INS1e assay) (bis-lipidated peptides, replicate n1, read-out: INS1e assay EC50 GLP-1R n1) it was 101 pM. At GLP-1R (INS1e assay) (bis-lipidated peptides, replicate n2, read-out: INS1e assay EC50 GLP-1R n2), the EC50 turned out to be 87.2 pM.

For the compound `CCCCCCCCCCCC(=O)N[C@@H](CCC(=O)N[C@@H](CCC(=O)N[C@@H](CCC(=O)NCCCC[C@H](NC(=O)[C@@H](NC(=O)[C@@H](NC(=O)[C@](C)(Cc1ccccc1)NC(=O)[C@H](C)NC(=O)[C@@H](NC(=O)[C@](C)(Cc1ccccc1)NC(=O)[C@H](CCC(=O)O)NC(=O)[C@](C)(CCCCN)NC(=O)[C@H](C)NC(=O)[C@H](C)NC(=O)[C@H](CCC(=O)O)NC(=O)CNC(=O)[C@H](CCC(=O)O)NC(=O)[C@H](CC(C)C)NC(=O)[C@](C)(Cc1ccccc1)NC(=O)[C@H](CO)NC(=O)[C@](C)(CO)NC(=O)[C@@H](NC(=O)[C@H](CC(=O)O)NC(=O)[C@H](CO)NC(=O)[C@@H](NC(=O)[C@](C)(Cc1ccccc1)NC(=O)[C@H](CO)NC(=O)CNC(=O)[C@H](CCC(=O)O)NC(=O)C(C)(C)NC(=O)[C@@H](N)Cc1c[nH]cn1)[C@@H](C)O)C(C)C)[C@@H](C)CC)C(C)C)C(C)C)C(=O)NCC(=O)NCC(N)=O)C(=O)O)C(=O)O)C(=O)O` [compound 166], the EC50 in experiment [1] (setting [10]) is at least 26 nM; in experiment [1] (setting [11]) it was at least 26 nM; in experiment [2] (setting [4]) it was 7.2 pM; in experiment [2] (setting [5]), 2.7 pM; in experiment [2] (setting [6]) it was 4.9 pM; in experiment [3] (setting [12]), at least 26 nM. The EC50 was at least 26 nM in experiment [3] (setting [13]), 460 pM on GLP-1R (INS1e assay) (setting [7]), 233 pM on GLP-1R (INS1e assay) (setting [8]) and 687 pM on GLP-1R (INS1e assay) (setting [9]).

These data come from US10414811B2, “Protease-resistant lipidated GLP-1 analogs” (MEDIMMUNE LIMITED, priority 2015, dated 2019).
